Results taken from ChEMBL document CHEMBL1138443, “Carbonic anhydrase inhibitors. Cloning, characterization, and inhibition studies of a new beta-carbonic anhydrase from Mycobacterium tuberculosis” (J Med Chem, 2009).

Target: T1, Beta-carbonic anhydrase 1 (Mycobacterium tuberculosis, UniProt P9WPJ7)
T1 sequence (P9WPJ7 whole entry): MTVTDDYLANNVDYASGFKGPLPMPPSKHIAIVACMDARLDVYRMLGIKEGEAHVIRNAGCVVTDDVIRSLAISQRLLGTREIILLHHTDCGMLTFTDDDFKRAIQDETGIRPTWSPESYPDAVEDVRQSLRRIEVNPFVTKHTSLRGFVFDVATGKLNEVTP

SMILES: CC(=O)/N=c1/sc(S(N)(=O)=O)nn1C [METHAZOLAMIDE]
- Ki: 781 nM
